The results in this text go back to patent US20200131669A1, “CYCLIC PEPTIDE COMPOUND HAVING HIGH MEMBRANE PERMEABILITY, AND LIBRARY CONTAINING SAME” (Chugai Seiyaku Kabushiki Kaisha, priority 2017, published 2020).

Starred links: 1 amine or outer side, 2 acyl side, 3 side chain; linkers in the order of their positions; H or OH if unused. Positions of bridges follow the written chain, without caps; N, C: chain ends. Non-standard residues stand in square brackets, D forms with d. Residues, ends and D or L forms follow the SMILES beside them. *: point of attachment. X17 = O=C([C@H](CCCC(O)C(F)(F)F)N[*:1])[*:2]; NMeF = CN[C@@H](Cc1ccccc1)C(=O)O; NMeI = CC[C@H](C)[C@H](NC)C(=O)O; dNMeF = CN[C@H](Cc1ccccc1)C(=O)O; CH2CH(OH)CF3 = OC(C*)C(F)(F)F; NMeL = CN[C@@H](CC(C)C)C(=O)O; dNMeL = CN[C@H](CC(C)C)C(=O)O; Propyl(2R-OH) = C[C@@H](O)C*; NMeV = CN[C@H](C(=O)O)C(C)C; NMeAbu = CC[C@H](NC)C(=O)O; NMeA = CN[C@@H](C)C(=O)O; Piperidide = C1CCN(*)CC1; NBuGly = CCCCNCC(=O)O; Ethyl(2-OH) = OCC*; Sar = CNCC(=O)O; tBu = CC(C)(C)*

The first series in a line: Caco-2 membrane permeability, improved method as used in the following Examples (96-well, 20 to 24 h preincubation). Format: in vitro ADME. The conditions noted are these: Caco-2, Caco-2. An outline of the steps:
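Papp (cm/sec) was derived from LC/MS of basal samples collected 180 min after apical dosing in FaSSIF/HBSS pH 6.0 with 1% DMSO, against a basal HBSS pH 7.4 receiver containing 4% BSA. Three-week Caco-2 cultures were first preincubated with compound in DMEM+FaSSIF at 37 °C for 20–24 h.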
`CC[C@H](C)[C@@H]1NC(=O)[C@H](CC(C)C)N(C)C(=O)[C@H](CCCC(O)C(F)(F)F)NC(=O)[C@H](Cc2ccccc2)N(C)C(=O)CN(C)C(=O)C[C@@H](C(=O)N2CCCCC2)NC(=O)[C@H](CC(C)C)N(C)C(=O)[C@H](COC(C)(C)C)NC(=O)[C@H](CC(C)C)N(C)C(=O)[C@H](Cc2ccccc2)N(C)C(=O)CN(C)C1=O` (stereo partly drawn) [pd502] ([Sar][NMeF][X17][NMeL]I[Sar][NMeF][NMeL]S(tBu)[NMeL]D-Piperidide; lactam N-11) registered an apical-to-basolateral permeability (Papp A→B) of 1 ×10⁻⁶ cm/s.

Staying with this series, now noted: human, Caco-2, Caco-2.
`CC[C@H](C)[C@H]1C(=O)N[C@@H](C(C)C)C(=O)N(C)CC(=O)N(C)[C@@H](CC(C)C)C(=O)N[C@H](C(=O)N2CCCCC2)CC(=O)N(C)[C@@H](C)C(=O)N[C@@H](COC[C@@H](C)O)C(=O)N(C)[C@H](CC(C)C)C(=O)N(C)[C@@H](Cc2ccccc2)C(=O)N[C@@H](CC(C)C)C(=O)N(C)[C@@H](Cc2ccccc2)C(=O)N1C` [pd495] ([NMeA]S(Propyl(2R-OH))[dNMeL][NMeF]L[NMeF][NMeI]V[Sar][NMeL]D-Piperidide; lactam N-11) showed a Papp A→B at 180 min of 3.7 ×10⁻⁶ cm/s.
On the same count and under the same terms, next, `CCCCN1CC(=O)N(C)[C@H](Cc2ccccc2)C(=O)N(C)[C@@H](CC(C)C)C(=O)N[C@@H](COC(C)(C)C)C(=O)N(C)[C@@H](CC(C)C)C(=O)N[C@H](C(=O)N2CCCCC2)CC(=O)N(C)CC(=O)N(C)[C@@H](Cc2ccccc2)C(=O)N[C@@H](C(C)C)C(=O)N(C)[C@@H](CC(C)C)C(=O)N[C@@H](COC[C@@H](C)O)C1=O` [pd496] ([Sar][NMeF]V[NMeL]S(Propyl(2R-OH))[NBuGly][dNMeF][NMeL]S(tBu)[NMeL]D-Piperidide; lactam N-11): 1 ×10⁻⁶ cm/s; `CC[C@H](C)[C@@H]1NC(=O)[C@H](CC(C)C)N(C)C(=O)[C@H](COC[C@@H](C)O)NC(=O)[C@H](Cc2ccccc2)N(C)C(=O)CN(C)C(=O)C[C@@H](C(=O)N2CCCCC2)NC(=O)[C@H](CC(C)C)N(C)C(=O)[C@H](COC(C)(C)C)NC(=O)[C@H](CC(C)C)N(C)C(=O)[C@H](Cc2ccccc2)N(C)C(=O)CN(C)C1=O` [pd497] ([Sar][NMeF]S(Propyl(2R-OH))[NMeL]I[Sar][NMeF][NMeL]S(tBu)[NMeL]D-Piperidide; lactam N-11): 3.3 ×10⁻⁶ cm/s.
On the same count and under the same terms, next, `CC[C@H](C)[C@H]1C(=O)N[C@@H](COCCO)C(=O)N(C)CC(=O)N(C)[C@@H](CC(C)C)C(=O)N[C@H](C(=O)N2CCCCC2)CC(=O)N(C)[C@@H](C)C(=O)N[C@@H](CC(C)C)C(=O)N(C)[C@@H](CC(C)C)C(=O)N(C)[C@@H](Cc2ccccc2)C(=O)N[C@@H](CC(C)C)C(=O)N(C)[C@@H](Cc2ccccc2)C(=O)N1C` [pd499] ([NMeA]L[NMeL][NMeF]L[NMeF][NMeI]S(Ethyl(2-OH))[Sar][NMeL]D-Piperidide; lactam N-11): 4.7 ×10⁻⁶ cm/s.
`CC[C@H](C)[C@H]1C(=O)N[C@@H](C(C)C)C(=O)N(C)CC(=O)N(C)[C@@H](CC(C)C)C(=O)N[C@H](C(=O)N2CCCCC2)CC(=O)N(C)[C@@H](C)C(=O)N[C@@H](COCCO)C(=O)N(C)[C@H](CC(C)C)C(=O)N(C)[C@@H](Cc2ccccc2)C(=O)N[C@@H](CC(C)C)C(=O)N(C)[C@@H](Cc2ccccc2)C(=O)N1C` [pd500] ([NMeA]S(Ethyl(2-OH))[dNMeL][NMeF]L[NMeF][NMeI]V[Sar][NMeL]D-Piperidide; lactam N-11) displayed a Papp A→B at 180 min of 2.2 ×10⁻⁶ cm/s.
Still for that read-out and setting: next, `CC[C@H]1C(=O)N(C)[C@@H](Cc2ccccc2)C(=O)N[C@@H](CC(C)C)C(=O)N(C)[C@@H](Cc2ccccc2)C(=O)N(C)[C@@H](C(C)C)C(=O)N[C@@H](COCC(O)C(F)(F)F)C(=O)N(C)CC(=O)N(C)[C@@H](CC(C)C)C(=O)N[C@H](C(=O)N2CCCCC2)CC(=O)N(C)[C@@H](C)C(=O)N[C@@H](CC(C)C)C(=O)N1C` (stereo partly drawn) [pd503] ([NMeA]L[NMeAbu][NMeF]L[NMeF][NMeV]S(CH2CH(OH)CF3)[Sar][NMeL]D-Piperidide; lactam N-11): 2 ×10⁻⁶ cm/s.
